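Five compound concentrations were applied to cells in 96-well plates for 48 hours; endpoints were derived by simple linear interpolation of the resulting dose-response curve. GI50 = concentration required for 50% inhibition of growth. The concentration for full growth arrest is given as TGI.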
Legend:
Assay in all cases: DTP human tumour cell line panel, 48 h
CAKI-1 renal = tested on: CAKI-1 renal
HCC-2998 colon = tested on: HCC-2998 colon
RXF 393 renal = tested on: RXF 393 renal
HL-60(TB) leukemia = tested on: HL-60(TB) leukemia
MDA-MB-435 = tested on: MDA-MB-435
NCI-H226 lung = tested on: NCI-H226 lung
NCI-H522 lung = tested on: NCI-H522 lung
CCRF-CEM leukemia = tested on: CCRF-CEM leukemia

SMILES	GI50 (CAKI-1 renal) [µM]	TGI (CAKI-1 renal) [µM]	GI50 (HCC-2998 colon) [µM]	TGI (HCC-2998 colon) [µM]	GI50 (RXF 393 renal) [µM]	TGI (RXF 393 renal) [µM]	GI50 (HL-60(TB) leukemia) [µM]	TGI (HL-60(TB) leukemia) [µM]	GI50 (MDA-MB-435) [µM]	TGI (MDA-MB-435) [µM]	GI50 (NCI-H226 lung) [µM]	TGI (NCI-H226 lung) [µM]	GI50 (NCI-H522 lung) [µM]	TGI (NCI-H522 lung) [µM]	GI50 (CCRF-CEM leukemia) [µM]	TGI (CCRF-CEM leukemia) [µM]
C=CC[N+]1(CCO)CCN=C1CCCCCCCCCCCCC (stereo not drawn)	1.65	3.15	1.37	2.66	1.44	2.81	1.51	3.1	1.72	3.09	1.7	3.43				
COc1cc(CNc2nc3cc(N)cc(N)c3nc2-c2ccccc2)cc(OC)c1OC	1.9	8.76			7.47	19.9	1.25	> 50	0.227	0.907	9.96	22.4	> 50	> 50		
C[C@@H]1[C@H]2[C@H](C=C3[C@@H]4CC[C@H]5Cc6nc7c(nc6C[C@]5(C)[C@H]4C[C@@H](O)[C@@]32C)C[C@@H]2CC[C@H]3C4=C[C@@H]5O[C@@]6(CC[C@](C)(CO)O6)[C@@H](C)[C@@]5(O)[C@@]4(C)[C@H](O)C[C@@H]3[C@@]2(C)C7)O[C@]12CCC(C)(C)O2			16	56.5	0.0706	0.333	0.419	7.76	2.8	24.3	3.33	35.6	2.26	11.8	0.317	
COc1cc([N+](=O)[O-])c(S(=O)(=O)O)cc1N		> 100						> 100		> 100		> 100		> 100		> 100
C[n+]1c2cc(N)ccc2cc2ccc(N)cc21 (tested in a mixture with another compound)	0.429	3.54	0.221	1.44	1.12	3.41			0.615	2.1	0.291	1.79	0.217	0.839		
CCOC(=O)/C(=C/c1ccccc1)C(=O)c1ccccc1	3.04	10.4	1.93	3.69	2.04	3.92			2.96	11.5	3.48	18.9	2.14	4.5	2.61	9.44
CCc1nc(-n2c(CC)nc3ccccc3c2=O)nc(N)c1-c1ccc(Cl)cc1	22.3	> 84.3	2.41	> 21	> 100	> 100	> 100	> 100	7.12	> 100	> 100	> 100	> 100	> 100		
COc1ccc(N2CCN(CN3CCN(c4ccc(OC)cc4)C3)C2)cc1	> 100	> 100	50.4	> 100	> 100	> 100			> 100	> 100	> 100	> 100	> 100	> 100	33.4	> 100
COc1cc(-c2nc(-c3nnc(-c4ccc(F)c(Cl)c4)o3)c3ccccn23)cc(OC)c1OC	5.46	> 100	5.64	> 100	2.62	7			3.09	> 100	2.38	6.07	1.92	4.66	> 100	> 100
CN(C)c1ccc(/C=C/c2ccnc3ccc4ccccc4c23)cc1		> 100				44.9		> 100		> 100				> 100		> 100
COc1ccc2c(c1)CC[C@@H]1[C@@H]2CC[C@]2(C)c3[nH]ncc3C[C@@H]12	16.2	48.8	13.7	35.3	11.3	28	1.64	9.84	14.7	44.5	16.6	> 50	10.3	27.4		
O=[N+]([O-])c1cccc(/C=C/c2ccccn2)c1	34.5	> 100	44.9	> 100	8.6	> 100	49.9	> 100	67	> 100	33.5	> 100			7.91	43
FC(F)(F)c1[nH]ncc1-c1nc2c(N3CCCCC3)cc3[nH]ncc3c2c2c1CCCC2	0.711	3.06	0.929	3.06	0.395	1.07	1.23	3.32	0.741	2.19			0.485	3.24	1.14	> 50
Cc1cc(S(N)(=O)=O)c(S/C(=N\Nc2ccc([N+](=O)[O-])cc2)c2ccc(O)cc2)cc1Cl	2.3	5.22	1.65	3.87	0.676	3.5	1.98	> 100	1.8	3.44	2.67	7.08	6.07	43.5		

From PubChem BioAssay (NCI)
